Reference: ChEMBL document CHEMBL1156238, “Allosteric inhibitors of hepatitis C virus NS5B polymerase thumb domain site II: structure-based design and synthesis of new templates” (Bioorg Med Chem, 2010)
Active and inactive are the calls of the source. The rule behind the calls is not given here.

Columns and labels:
Hepatitis C virus [1] = experiment: Antiviral activity against HCV infected in human HBI10A cells; format: functional, organism-based, Hepacivirus hominis
Hepatitis C virus [2] = experiment: Inhibition of HCV genotype 1b NS5B polymerase deltaC21 mutant; format: functional, Hepatitis C virus subtype 1b
Hepatitis C virus [3] = experiment: Antiviral activity against Hepatitis C virus H2B2; format: functional, organism-based, Hepacivirus hominis
[4] = Cytotoxicity against human HBI10A cells; format: cell-based
[5] = Inhibition of HCV genotype 2b NS5B polymerase deltaC21 mutant; parameters: species or system Hepatitis C virus subtype 2b
Hepatitis C virus [6] = experiment: Inhibition of HCV genotype 1b NS5B polymerase deltaC21 M423K mutant at 2 uM; format: functional; conditions: Hepatitis C virus subtype 1b
Hepatitis C virus [7] = experiment: Antiviral activity against Hepatitis C virus at 20 uM; conditions: Hepacivirus hominis
Hepatitis C virus [8] = experiment: Inhibition of HCV genotype 1b NS5B polymerase deltaC21 M423K mutant at 50 uM; format: functional; conditions: Hepatitis C virus subtype 1b
Hepatitis C virus [9] = experiment: Inhibition of HCV genotype 1b NS5B polymerase deltaC21 mutant at 50 uM; format: functional; conditions: Hepatitis C virus subtype 1b
[10] = Selectivity index, ratio of CC50 for human HBI10A cells to EC50 for Hepatitis C virus; format: toxicity, cell-based; conditions: read-out: Ratio CC50/EC50
[11] = Cytotoxicity against human HBI10A cells at 20 uM; format: cell-based
Hepatitis C virus [12] = experiment: Inhibition of HCV genotype 1b NS5B polymerase deltaC21 M423K mutant; format: functional, Hepatitis C virus subtype 1b
[13] = Hepatitis C virus, H2B2, read-out: EC50

Structure (SMILES): O=c1c2ccc(NCCO)cc2n2ccnc2n1-c1cccc(Cl)c1
- EC50 (Hepatitis C virus [1]): > 100 µM
- IC50 (Hepatitis C virus [2]; read-out: IC50): > 10 µM
- EC50 (Hepatitis C virus [3]): Not Active
- CC50 ([4]; hbi10a): Not Active
- IC50 [5]: > 10 µM

Structure (SMILES): Cn1c(=O)n(-c2cccc(Cl)c2)c(=O)c2ccc(NCCO)cc21
- EC50 (Hepatitis C virus [1]): 40 µM
- IC50 (Hepatitis C virus [2]; read-out: IC50): 2 µM
- EC50 (Hepatitis C virus [3]; [13]): > 100 µM
- CC50 ([4]; HBI10A cells, read-out: CC50): > 100 µM
- IC50 [5]: 8.2 µM

Structure (SMILES): O=C1c2cccc3c(NCCO)ccc(c23)C(=O)N1c1cccc(Br)c1
- IC50 (Hepatitis C virus [2]; read-out: IC50): 0.02 µM
- EC50 (Hepatitis C virus [3]; [13]): 18 µM
- inhibition (Hepatitis C virus [6]): inactive
- CC50 ([4]; HBI10A cells, read-out: CC50): 68 µM
- IC50 [5]: 0.18 µM

Structure (SMILES): C=C[C@H]1CN2CC[C@H]1C[C@H]2[C@H](O)c1ccnc2ccc(OC)cc12
- inhibition (Hepatitis C virus [7]): inactive
- inhibition (Hepatitis C virus [8]): inactive
- inhibition (Hepatitis C virus [9]): inactive

Structure (SMILES): O=c1[nH]c2cc(NCCO)ccc2c(=O)n1-c1cccc(Cl)c1
- EC50 (Hepatitis C virus [1]): > 100 µM
- IC50 (Hepatitis C virus [2]; read-out: IC50): 5.5 µM
- EC50 (Hepatitis C virus [3]; [13]): > 100 µM
- CC50 ([4]; HBI10A cells, read-out: CC50): > 100 µM
- IC50 [5]: > 50 µM

Structure (SMILES): Cn1c(=O)n(-c2cccc(Cl)c2)c(=O)c2ccc(NC3CCN(Cc4ccccc4)CC3)cc21
- selectivity ratio [10]: 0.9
- EC50 (Hepatitis C virus [1]): 11 µM
- IC50 (Hepatitis C virus [2]; read-out: IC50): 0.075 µM
- EC50 (Hepatitis C virus [3]; [13]): > 25 µM
- CC50 ([4]; HBI10A cells, read-out: CC50): 9.9 µM
- IC50 [5]: 1.3 µM

Structure (SMILES): CC(C)CNc1ccc2c(=O)n(-c3cccc(Cl)c3)c(=O)n(C)c2c1
- selectivity ratio [10]: > 4
- EC50 (Hepatitis C virus [1]): 24 µM
- IC50 (Hepatitis C virus [2]; read-out: IC50): 3 µM
- EC50 (Hepatitis C virus [3]; [13]): > 100 µM
- CC50 ([4]; HBI10A cells, read-out: CC50): > 100 µM
- IC50 [5]: 5 µM

Structure (SMILES): C=C[C@H]1C[N@@]2CC[C@H]1C[C@H]2[C@H](O)c1ccnc2ccc(OC)cc12 [QUININE]
- inhibition (INH) [11]: Not Active

Structure (SMILES): CC[n+]1c(-c2ccccc2)c2cc(N)ccc2c2ccc(N)cc21 [HOMIDIUM BROMIDE]
- selectivity ratio [10]: 0.85
- IC50 (Hepatitis C virus [2]; read-out: IC50): 0.81 µM
- IC50 (Hepatitis C virus [12]): 3.8 µM
- CC50 ([4]; HBI10A cells, read-out: CC50): 0.7 µM

Structure (SMILES): O=c1c2cccc3c2n(c(=O)n1-c1cccc(Cl)c1)CCN3CCCO
- EC50 (Hepatitis C virus [1]): < 100 µM
- IC50 (Hepatitis C virus [2]; read-out: IC50): 5.2 µM
- EC50 (Hepatitis C virus [3]; [13]): > 100 µM
- CC50 ([4]; hbi10a): Not Active
- IC50 [5]: 7.7 µM

Structure (SMILES): O=c1c2ccc(N[C@H]3CC[C@@H](C(=O)O)CC3)c3c2n(c(=O)n1-c1cccc(Cl)c1)CCC3
- selectivity ratio [10]: > 7.8
- EC50 (Hepatitis C virus [1]): 13 µM
- IC50 (Hepatitis C virus [2]; read-out: IC50): 1.1 µM
- EC50 (Hepatitis C virus [3]; [13]): 17 µM
- CC50 ([4]; HBI10A cells, read-out: CC50): > 100 µM
- IC50 [5]: 0.49 µM

Structure (SMILES): O=C1c2cccc3c(NCCO)ccc(c23)C(=O)N1c1cccc(Cl)c1
- selectivity ratio [10]: 6.8
- EC50 (Hepatitis C virus [1]): 8.4 µM
- IC50 (Hepatitis C virus [2]; read-out: IC50): 0.039 µM
- EC50 (Hepatitis C virus [3]; [13]): 35 µM
- CC50 ([4]; HBI10A cells, read-out: CC50): 57 µM
- IC50 [5]: 0.21 µM

Structure (SMILES): O=c1c2ccc(NCCO)c3c2n(c(=O)n1-c1cccc(Cl)c1)CCC3
- selectivity ratio [10]: 0.8
- EC50 (Hepatitis C virus [1]): 15 µM
- IC50 (Hepatitis C virus [2]; read-out: IC50): 0.2 µM
- EC50 (Hepatitis C virus [3]; [13]): 26 µM
- CC50 ([4]; HBI10A cells, read-out: CC50): 12 µM
- IC50 [5]: 0.67 µM

Structure (SMILES): Cc1c(NCCO)ccc2c(=O)n(-c3cccc(Cl)c3)c3nncn3c12
- EC50 (Hepatitis C virus [1]): 14 µM
- IC50 (Hepatitis C virus [2]; read-out: IC50): 0.38 µM
- EC50 (Hepatitis C virus [3]): Not Active
- CC50 ([4]; hbi10a): Not Active
- IC50 [5]: 5.3 µM

Structure (SMILES): O=C(O)c1cccc(CN2CCn3c(=O)n(-c4cccc(Cl)c4)c(=O)c4cccc2c43)c1
- selectivity ratio [10]: > 3.7
- EC50 (Hepatitis C virus [1]): 27 µM
- IC50 (Hepatitis C virus [2]; read-out: IC50): 0.13 µM
- EC50 (Hepatitis C virus [3]; [13]): > 100 µM
- CC50 ([4]; HBI10A cells, read-out: CC50): > 100 µM
- IC50 [5]: 2 µM

Structure (SMILES): O=C(NC1CCN(Cc2ccccc2)CC1)c1cccc2c(=O)n(-c3cccc(Cl)c3)c(=O)[nH]c12
- selectivity ratio [10]: 1.8
- EC50 (Hepatitis C virus [1]): 4 µM
- IC50 (Hepatitis C virus [2]; read-out: IC50): 0.076 µM
- EC50 (Hepatitis C virus [3]; [13]): 6.6 µM
- CC50 ([4]; HBI10A cells, read-out: CC50): 7 µM
- IC50 [5]: 0.73 µM

Structure (SMILES): COc1cccc2c1C(=O)c1c(O)c3c(c(O)c1C2=O)C[C@@](O)(C(=O)CO)C[C@@H]3O[C@H]1C[C@H](N)[C@H](O)[C@H](C)O1 [DOXORUBICIN]
- selectivity ratio [10]: < 1
- IC50 (Hepatitis C virus [2]): 2.6 µM
- IC50 (Hepatitis C virus [12]): 12 µM
- CC50 ([4]; HBI10A cells, read-out: CC50): < 0.3 µM

Structure (SMILES): O=c1c2ccc(NC3CCN(Cc4ccccc4)CC3)cc2n2ccnc2n1-c1cccc(Cl)c1
- selectivity ratio [10]: 0.9
- EC50 (Hepatitis C virus [1]): 3.7 µM
- IC50 (Hepatitis C virus [2]; read-out: IC50): 0.84 µM
- EC50 (Hepatitis C virus [3]; [13]): 2.6 µM
- CC50 ([4]; HBI10A cells, read-out: CC50): 3.2 µM
- IC50 [5]: > 5 µM

Structure (SMILES): O=C1c2cccc3c(NC4CCN(Cc5ccccc5)CC4)ccc(c23)C(=O)N1c1cccc(Br)c1
- selectivity ratio [10]: 2.4
- EC50 (Hepatitis C virus [1]): 2.2 µM
- IC50 (Hepatitis C virus [2]; read-out: IC50): < 0.014 µM
- EC50 (Hepatitis C virus [3]; [13]): 1.7 µM
- CC50 ([4]; HBI10A cells, read-out: CC50): 5.2 µM
- IC50 [5]: 0.043 µM

Structure (SMILES): O=C(NCCO)c1cccc2c(=O)n(-c3cccc(Cl)c3)c(=O)[nH]c12
- EC50 (Hepatitis C virus [1]): < 100 µM
- IC50 (Hepatitis C virus [2]; read-out: IC50): > 10 µM
- EC50 (Hepatitis C virus [3]): Not Active
- CC50 ([4]; hbi10a): Not Active
- IC50 [5]: > 10 µM

Structure (SMILES): Cc1c(NC2CCN(Cc3ccccc3)CC2)ccc2c(=O)n(-c3cccc(Cl)c3)c3nncn3c12
- selectivity ratio [10]: 3
- EC50 (Hepatitis C virus [1]): 3 µM
- IC50 (Hepatitis C virus [2]; read-out: IC50): 6.6 µM
- EC50 (Hepatitis C virus [3]; [13]): < 100 µM
- CC50 ([4]; HBI10A cells, read-out: CC50): 9 µM
- IC50 [5]: 0.4 µM

Structure (SMILES): CC1CCC(Nc2ccc3c(=O)n(-c4cccc(Cl)c4)c(=O)n(C)c3c2)CC1 (stereo unspecified)
- selectivity ratio [10]: 1.6
- EC50 (Hepatitis C virus [1]): 22 µM
- IC50 (Hepatitis C virus [2]; read-out: IC50): 5.2 µM
- EC50 (Hepatitis C virus [3]; [13]): 16 µM
- CC50 ([4]; HBI10A cells, read-out: CC50): 36 µM
- IC50 [5]: 2.3 µM

Structure (SMILES): O=c1c2ccc(NC3CCN(Cc4ccccc4)CC3)c3c2n(c(=O)n1-c1cccc(Cl)c1)CCC3
- selectivity ratio [10]: 5.9
- EC50 (Hepatitis C virus [1]): 1.7 µM
- IC50 (Hepatitis C virus [2]; read-out: IC50): 0.008 µM
- EC50 (Hepatitis C virus [3]; [13]): 4.9 µM
- CC50 ([4]; HBI10A cells, read-out: CC50): 10 µM
- IC50 [5]: 0.14 µM

Structure (SMILES): O=C(O)c1cc(Cl)cc(-n2c(=O)c3ccc(NC4CCN(Cc5ccccc5)CC4)c4c3n(c2=O)CCC4)c1
- selectivity ratio [10]: 10
- EC50 (Hepatitis C virus [1]): 4.1 µM
- IC50 (Hepatitis C virus [2]; read-out: IC50): 0.16 µM
- EC50 (Hepatitis C virus [3]; [13]): 20 µM
- CC50 ([4]; HBI10A cells, read-out: CC50): 42 µM
- IC50 [5]: 0.72 µM

Structure (SMILES): Cc1c(NCCO)ccc2c(=O)n(-c3cccc(Cl)c3)c(=O)n(C)c12
- selectivity ratio [10]: > 2.5
- EC50 (Hepatitis C virus [1]): 40 µM
- IC50 (Hepatitis C virus [2]; read-out: IC50): 2.4 µM
- EC50 (Hepatitis C virus [3]; [13]): > 100 µM
- CC50 ([4]; HBI10A cells, read-out: CC50): > 100 µM
- IC50 [5]: 5.3 µM
